Laboratory results from patent publication US20030129751A1, “Tissue-engineered organs” (priority 2001, published 2003).

Tested on: neointestine
Assay: GLP-2 treatment of rats bearing tissue-engineered small intestine: morphometry and SGLT1 expression
Format: in vivo, rat
Description: Neointestinal cysts were engineered by seeding biodegradable polymers with neonatal rat intestinal organoid units. The implantation was also performed with small intestine organoid units that had been labeled with GFP to distinguish and verify engineered tissue from host tissue (FIG. 36). Confirmation of GFP production was obtained by simultaneous in vitro culture of the organoid units. The cysts were matured and anastomosed to the native jejunum of syngenic adult recipients. Histology and surface area calculations were performed, as well as Northern blot and localization analysis of the Na+/glucose cotransporter (SGLT1). GLP-2 treatment augmented the absorptive surface area of engineered intestine […]. Animals were treated with [[…]]GLP-2 (twice daily, 1 μg/g body weight), a long-acting analogue of GLP-2, or vehicle alone (control) for 10 days. Rats were then sacrificed and tissues harvested for analysis. Histological parameters and surface area determinations were done using computer-based morphometry.

[1] = [Gly2]GLP-2 twice daily 1 μg/g body weight, 10 days, mean±S.D.
[2] = [Gly2]GLP-2 twice daily 1 μg/g body weight, 10 days, mean±S.D., p < 0.05

[Gly2]GLP-2 (HGDGSFSDEMNTILDNLAARDFINWLIQTKITD; Glucagon-like peptide 2; UniProt P01275 146-178, looked up, variant A2G) [a long-acting analogue of GLP-2]
SGLT1 mRNA expression in the neointestine (Northern blot, vs vehicle control): two-fold increase | Crypt Width [1]: 63 ± 6 microns | Villus Width [1]: 114 ± 32 microns | Surface Area (mucosal amplification ratio) [2]: 7.3 ± 1.4 | Villus Height [2]: 456 ± 23 microns | SGLT1 expression topography (localization analysis): unperturbed | Expansion of absorptive surface area (vs vehicle control, 10 days): 40%
